Data on three compounds can be found in article PMC7084495, “Discovery of 1-Pyrimidinyl-2-Aryl-4,6-Dihydropyrrolo [3,4-d]Imidazole-5(1H)-Carboxamide as a Novel JNK Inhibitor” (International Journal of Molecular Sciences, 2020).

This test deals with T1, JNK3 (h) (Homo sapiens, UniProt P53779).
T1 construct: purchased Reaction Biology Corp. (Kinase HotSpot service)
T1 sequence (P53779 whole entry): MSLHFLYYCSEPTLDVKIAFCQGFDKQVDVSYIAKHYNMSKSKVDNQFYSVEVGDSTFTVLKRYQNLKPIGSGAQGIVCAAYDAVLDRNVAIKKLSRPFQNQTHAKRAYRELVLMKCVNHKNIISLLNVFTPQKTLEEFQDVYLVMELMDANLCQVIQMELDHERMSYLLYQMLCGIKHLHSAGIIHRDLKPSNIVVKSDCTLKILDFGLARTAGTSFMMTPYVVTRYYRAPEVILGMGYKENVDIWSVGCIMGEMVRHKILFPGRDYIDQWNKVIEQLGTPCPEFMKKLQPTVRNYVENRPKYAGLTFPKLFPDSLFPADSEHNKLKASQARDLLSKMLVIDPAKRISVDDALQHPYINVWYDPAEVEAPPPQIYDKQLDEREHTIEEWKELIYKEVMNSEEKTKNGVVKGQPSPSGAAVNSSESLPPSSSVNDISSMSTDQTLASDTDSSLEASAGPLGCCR
In words: JNK3 kinase inhibition, Reaction Biology Kinase HotSpot radiometric assay. The test is classed as biochemical. The settings on record: enzymatic activity; ATP 10 μM. An excerpt:
(specific activity approx. 500 cpm/pmol, concentration as required).
With `NC(=O)N1Cc2nc(-c3ccc(Cl)c(Cl)c3)n(-c3ccnc(N[C@H]4CCCN(C(=O)C5CC5)C4)n3)c2C1` [Compound 17a, (S)-1-(2-((1-(Cyclopropanecarbonyl)Piperidin-3-yl)Amino)Pyrimidin-4-yl)-2-(3,4-Dichlorophenyl)-4,6-Dihydropyrrolo[3,4-d]Imidazole-5(1H)-Carboxamide], the IC50 was 10.4 nM.

In turn, `NC(=O)N1Cc2nc(-c3ccc4c(c3)OCO4)n(-c3ccnc(N[C@H]4CCCN(C(=O)C5CCC5)C4)n3)c2C1` [Compound 20c, (S)-2-(Benzo[d][1,3]Dioxol-5-yl)-1-(2-((1-(Cyclobutanecarbonyl)Piperidin-3-yl)Amino)Pyrimidin-4-yl)-4,6-Dihydropyrrolo[3,4-d]Imidazole-5(1H)-Carboxamide] returned a 50% inhibitory concentration (IC50) of 225 nM.

In turn, `O=C(C1CC1)N1CCC[C@H](Nc2nccc(-n3c(-c4ccc(Cl)c(Cl)c4)nc4c3CN(C(=O)N3CCC(O)CC3)C4)n2)C1` [Compound 22a, (S)-(1-(2-((1-(Cyclopropanecarbonyl)piperidin-3-yl)amino)pyrimidin-4-yl)-2-(3,4-dichlorophenyl)-4,6-dihydropyrrolo[3,4-d]Imidazol-5(1H)-yl)(4-hydroxypiperidin-1-yl)methanone] registered an IC50 of 18.6 nM.
